Laboratory results from US11274158B2, “Methods and compositions for treating inflammatory or autoimmune diseases or conditions using calcitonin receptor activators” (Flagship Pioneering Innovations V, Inc., priority 2018, dated 2022).

Tested on: human macrophages
Assay: Effect of calcitonin receptor agonism on cytokine (IL6) secretion in human macrophages, bead-based immunoassay
Assay type: cell-based
Settings: human monocyte-derived macrophages, supernatant
Procedure: CD14+ monocytes were isolated from human PBMCs using negative magnetic bead selection (Stemcell Technologies) on day 0. Cells were cultured with M-CSF to differentiate monocytes to macrophages. On day 6, cells were treated with SUN-B-8155, a non-peptide calcitonin receptor agonist (Sigma-Aldrich), at concentrations 2 μM and 20 μM overnight. Supernatant was collected and bead-based immunoassays (Biolegend) were performed to detect changes in cytokine secretion.
Across multiple donors, secretion of the inflammatory cytokine, IL6, by macrophages was decreased after addition of small molecule agonist to calcitonin receptor, as shown in Table 13 below.

Fold change of IL6 (Normalized to Macs + LPS with no compound treatment) (2 μM overnight): 0.92
Fold change of IL6 (Normalized to Macs + LPS with no compound treatment) (20 μM overnight): 0.09
SMILES: CC(=Nc1ccccc1N)c1c(C)cc(=O)n(O)c1O [SUN-B-8155]
